According to publication PMC12490008 (Environmental Science & Technology, 2025):
*1 amine or outer side, *2 acyl side, *3 side chain or, on linkers, in order; H or OH if unused. Where a SMILES comes first, the peptide text is derived from it. Bridges are numbered along the chain shown (N, C = ends). [ ]: non-standard residue; d: D form. Adda = CO[C@@H](Cc1ccccc1)[C@@H](C)/C=C(C)/C=C/[C@H](N[*:1])[C@H](C)C(=O)[*:2]; dAsp(3S-Me) = C[C@H](C(=O)[*:3])[C@@H](N[*:1])C(=O)[*:2]; d(γGlu) = O=C(O)[C@@H](CCC(=O)[*:2])N[*:1]; hTyr = N[C@@H](CCc1ccc(O)cc1)C(=O)O; NMeA = CN[C@@H](C)C(=O)O; NMeDha = C=C(NC)C(=O)O; CO = O=C([*:1])[*:2]

How the values were obtained:
[1] = system: River Chriesbach biofilm suspensions
[2] = system: River Chriesbach biofilm suspension (100%)
[3] = system: River Chriesbach biofilm suspension
[4] = system: River Chriesbach river water
[5] = system: River Chriesbach biofilm suspension (100%, 10%, 1%)

| Compound | biodegradability in biofilm suspensions (in words) [1] | 1.3d removal, 2% metabolite [2] [%] | 1.3d removal, 10% metabolite [2] [%] | 1.3d removal, 100% metabolite [2] [%] | Half-lives (h), 100% metabolite [2] [h] | removal within 3 days [3] | 1d removal, River water [4] [%] | Half-lives (h), River water [4] | 1d removal, 1% biofilm [5] [%] | 1d removal, 10% biofilm [5] [%] | 1d removal, 100% biofilm [5] [%] | Half-lives (h), 1% biofilm [5] | Half-lives (h), 10% biofilm [5] | Half-lives (h), 100% biofilm [5] [h] | Half-lives (h), 2% metabolite [2] [h] | Half-lives (h), 10% metabolite [2] [h] | Lag-time (h), 2% metabolite [2] [h] | Lag-time (h), 10% metabolite [2] [h] | Lag-time (h), 100% metabolite [2] [h] | Lag-time (h), 100% biofilm [5] [h] | further results |
| --- | --- | --- | --- | --- | --- | --- | --- | --- | --- | --- | --- | --- | --- | --- | --- | --- | --- | --- | --- | --- | --- |
| CC[C@H](C)[C@@H]1NC(=O)[C@H](NC(=O)N[C@@H](Cc2c[nH]c3ccccc23)C(=O)O)CCCCNC(=O)[C@H](Cc2ccccc2)NC(=O)[C@H](C)N(C)C(=O)[C@H](CCc2ccc(O)cc2)NC1=O [Ferintoic acid B] ({Trp-CO}-[dK]I[hTyr][NMeA]F; lactam 1-C) | did not show detectable biotransformation | – | – | – | – | – | – | – | – | – | – | – | – | – | – | – | – | – | – | – | – |
| C=C1C(=O)N[C@H](C)C(=O)N[C@@H](CCc2ccc(O)cc2)C(=O)N[C@@H](C(=O)O)[C@H](C)C(=O)N[C@@H](CCCNC(=N)N)C(=O)N[C@@H](/C=C/C(C)=C/[C@H](C)[C@H](Cc2ccccc2)OC)[C@H](C)C(=O)N[C@@H](C(=O)O)CCC(=O)N1C [MC-HtyR] (R[Adda][d(γGlu)][NMeDha][dA][hTyr][dAsp(3S-Me)]-OH; lactam N-7) | biodegradable | 33 | 14 | 9 | 70.4 | 31% | -36 | n.d.(decay) | -13 | 19 | 17 | n.d.(decay) | n.d.(decay) | 51.8 | – | – | – | – | – | – | – |
| Anabaenopeptin 871 | did not show detectable biotransformation | – | – | – | – | – | – | – | – | – | – | – | – | – | – | – | – | – | – | – | – |
| Anabaenopeptin B | – | 100 | 99 | 62 | 30.0 | – | -23 | n.d.(decay) | -11 | 23 | 85 | – | 111.9 h | 10.4 | 6.2 | 11.2 | 5.3 | 10.3 | 29.9 | 8.5 | initial removal at 1.3 days at decreased initial metabolite concentrations [2]: ~100%; detectability at day 5 [3]: not detectable anymore; lag time (shoulder-log fitting) [3]: 2.3 days; Lag-time (h), River water [4]: n.d.(decay); Lag-time (h), 10% biofilm [5]: 111.7 h |
| Anabaenopeptin D | did not show detectable biotransformation | – | – | – | – | – | – | – | – | – | – | – | – | – | – | – | – | – | – | – | – |
| Cyanopeptolin 963A | – | 100 | 98 | 64 | 29.6 | 32-35% | -81 | – | -26 | 5 | 56 | – | – | – | – | – | – | – | 29.5 | – | – |
| Cyanopeptolin 1020 | – | 100 | 100 | 94 | 9.9 | – | – | 129.5 h | – | 31 | 91 | 112.1 h | 64.2 h | 9.0 | 6.2 | 8.3 | 5.7 | 8.3 | 0.4 | 6.7 | detectability at day 5 [3]: not detectable anymore; lag time (shoulder-log fitting) [3]: 1.6 days; degradation in ambient river water [4]: detectable degradation; lag time, ambient river water [4]: 5.4 days; lag time, 1% biofilm [5]: 4.1 days; lag time, 10% biofilm [5]: 2.5 days |
| Cyanopeptolin A | – | 100 | 100 | 97 | 5.8 | more than 50% | 3 | n.d.(decay) | 10 | 57 | 98 | 105.9 h | 35.9 h | 5.1 | – | 6.5 | – | 6.1 | 0.0 | 0.8 | Lag-time (h), River water [4]: n.d.(decay); Lag-time (h), 1% biofilm [5]: 89.7 h; Lag-time (h), 10% biofilm [5]: 0.0 h |
| Cyanopeptolin B | – | 100 | 100 | 96 | 7.7 | more than 50% | 2 | – | 16 | 49 | 100 | – | – | – | – | – | – | – | 0.0 | – | – |
| Cyanopeptolin C | – | 100 | 100 | 82 | 18.1 | more than 50% | -3 | – | 1 | 29 | 80 | – | – | – | – | 8.5 | – | 8.5 | 9.6 | – | – |
| Cyanopeptolin D | – | 100 | 100 | 76 | 27.2 | more than 50% | 11 | n.d.(decay) | 4 | 26 | 77 | – | – | 19.1 | 7.4 | 11.1 | 7.3 | 10.5 | 27.2 | 18.7 | Lag-time (h), River water [4]: n.d.(decay) |
| Oscillamide Y | – | 100 | 98 | 51 | 33.9 | 32-35% | -24 | n.d.(decay) | 1 | 28 | 86 | 191.5 h | 101.7 h | 11.1 | 7.1 | 12.8 | 6.8 | 11.7 | 33.8 | 9.4 | Lag-time (h), River water [4]: n.d.(decay); expected river water half-lives [4]: 7.2 to 8.0 days; Lag-time (h), 1% biofilm [5]: 0.0 h; Lag-time (h), 10% biofilm [5]: 99.6 h |
